This passage reports LC retention time results from the RepoRT retention time repository (doi:10.1016/j.jchromb.2020.122105).

What all share (conditions): stereoisomer not certain
Series [1] can be described thus: RP, Waters ACQUITY UPLC BEH C18, 100 × 2.1 mm, 1.7 µm, 0.1 mL/min, estimated dead time 2.2 min; A: water + 0.1% formic acid, pH 3; B: methanol + 0.1% formic acid, pH 3; gradient (min/%B) 0/5 5/5 25/100 30/100 30.1/5 35/5.
The nature of series [2]: RP, Waters CORTECS T3, 100 × 2.1 mm, 2.7 µm, 0.3 mL/min, estimated dead time 0.73 min; A: water + 0.1% formic acid, pH 3; B: methanol + 0.1% formic acid, pH 3; gradient (min/%B) 0/0 1/0 6/5 30/100 35/100 35.1/0 40/0.
A short description of series [3]: RP, Waters CORTECS T3, 100 × 2.1 mm, 2.7 µm, 0.1 mL/min, estimated dead time 2.2 min; A: water + 0.1% formic acid, pH 3; B: methanol + 0.1% formic acid, pH 3; gradient (min/%B) 0/0 1/0 6/5 30/100 35/100 35.1/0 40/0.
Series [4] can be described thus: RP, Waters CORTECS T3, 100 × 2.1 mm, 2.7 µm, 0.1 mL/min, estimated dead time 2.2 min; A: water + 0.1% formic acid, pH 3; B: methanol + 0.1% formic acid, pH 3; gradient (min/%B) 0/5 5/5 25/95 25.1/100 35/100 35.1/5 45/5.
Series [5] in a line: RP, Waters ACQUITY UPLC BEH C18, 100 × 2.1 mm, 1.7 µm, 0.1 mL/min, estimated dead time 2.2 min; A: water + 0.1% formic acid, pH 3; B: methanol + 0.1% formic acid, pH 3; gradient (min/%B) 0/5 5/5 25/95 25.1/100 35/100 35.1/5 45/5.
The nature of series [6]: RP, Waters CORTECS T3, 100 × 2.1 mm, 2.7 µm, 0.3 mL/min, estimated dead time 0.73 min; A: water + 0.1% formic acid, pH 3; B: methanol + 0.1% formic acid, pH 3; gradient (min/%B) 0/5 5/5 25/100 30/100 30.1/5 35/5.
The nature of series [7]: RP, Waters CORTECS T3, 100 × 2.1 mm, 2.7 µm, 0.2 mL/min, estimated dead time 1.1 min; A: water + 0.1% formic acid, pH 3; B: methanol + 0.1% formic acid, pH 3; gradient (min/%B) 0/0 1/0 6/5 30/100 35/100 35.1/0 40/0.
Series [8] in a line: RP, Waters CORTECS T3, 100 × 2.1 mm, 2.7 µm, 0.3 mL/min, estimated dead time 0.73 min; A: water + 0.1% formic acid, pH 3; B: methanol + 0.1% formic acid, pH 3; gradient (min/%B) 0/0 5/0 25/100 30/100 30.1/0 35/0.
Series [9] in a line: RP, Waters ACQUITY UPLC BEH C18, 100 × 2.1 mm, 1.7 µm, 0.1 mL/min, estimated dead time 2.2 min; A: water + 0.045% formic acid + 0.11% ammonium hydroxide, pH 7; B: methanol; gradient (min/%B) 0/5 5/5 25/95 25.1/100 35/100 35.1/5 45/5.
Series [10] can be described thus: RP, Waters CORTECS T3, 100 × 2.1 mm, 2.7 µm, 0.25 mL/min, estimated dead time 0.88 min; A: water + 0.1% formic acid, pH 3; B: methanol + 0.1% formic acid, pH 3; gradient (min/%B) 0/0 1/0 6/5 30/100 35/100 35.1/0 40/0.
Series [11] can be described thus: RP, Waters CORTECS T3, 100 × 2.1 mm, 2.7 µm, 0.3 mL/min, estimated dead time 0.73 min; A: water + 0.1% formic acid, pH 3; B: methanol + 0.1% formic acid, pH 3; gradient (min/%B) 0/5 5/5 25/95 25.1/100 35/100 35.1/5 45/5.
Series [12] in a line: HILIC, Thermo Scientific Accucore HILIC, 100 × 2.1 mm, 2.6 µm, 0.5 mL/min, estimated dead time 0.44 min; A: water + 0.1% formic acid + 10 mM ammonium formate, pH 3; B: 5% water + 95% acetonitrile + 0.1% formic acid + 10 mM ammonium formate, pH 3; gradient (min/%B) 0/95 5/95 20/57 25/57 30/95 40/95.
Series [13] can be described thus: RP, Waters ACQUITY UPLC BEH C18, 100 × 2.1 mm, 1.7 µm, 0.1 mL/min, estimated dead time 2.2 min; A: water + 0.1% formic acid, pH 3; B: methanol + 0.1% formic acid, pH 3; gradient (min/%B) 0/5 5/5 25/95 25.1/100 35/100 35.1/5 45/5. This is another data set of the same source.
Series [14] in a line: RP, Waters CORTECS T3, 100 × 2.1 mm, 2.7 µm, 0.15 mL/min, estimated dead time 1.5 min; A: water + 0.1% formic acid, pH 3; B: methanol + 0.1% formic acid, pH 3; gradient (min/%B) 0/0 1/0 6/5 30/100 35/100 35.1/0 40/0.

As for `N[C@@H](Cc1cc(I)c(O)c(I)c1)C(=O)O` [3,5-DIIODO-L-TYROSINE], the LC retention time in [1] is 15.8 min; in [2], 12.6 min; in series [3], 12.5 min; in series [4], 15.8 min; in series [5], 16.1 min; in [6] it was 10.9 min. The LC retention time in series [7] is 14.1 min; in [8] it was 12 min; in [9] it was 10.8 min; in series [10], 13.3 min; in [11], 11.1 min; in [12], 9.05 min. Besides, the LC retention time in series [13] was 16.1 min; in series [14], 15.4 min.
